The subject of data set [1] is aged-impaired (AI) rats. Description: Radial Arm Maze (RAM) behavioral task, spatial memory retention. It is filed as in vivo, rat. Particulars: four-hour delay. On the procedure:
The effects of methyl 3,5-diphenylpyridazine-4-carboxylate on the in vivo spatial memory retention of aged-impaired (AI) rats were assessed in a Radial Arm Maze (RAM) behavioral task using vehicle control and four different dosage levels of methyl 3,5-diphenylpyridazine-4-carboxylate (0.1 mg/kg, 0.3 mg/kg, 1 mg/kg and 3 mg/kg, ip). RAM behavioral tasks were performed on eight AI rats. All five treatment conditions (vehicle and four dosage levels) were tested on all eight rats.
The RAM apparatus used consisted of eight equidistantly-spaced arms. An elevated maze arm (7 cm width×75 cm length) projected from each facet of an octagonal center platform (30 cm diameter, 51.5 cm height). Clear side walls on the arms were 10 cm high and were angled at 65° to form a trough. A food well (4 cm diameter, 2 cm deep) was located at the distal end of each arm. Froot Loops™ (Kellogg Company) were used as rewards. Blocks constructed of Plexiglas™ (30 cm height×12 cm width) could be positioned to prevent entry to any arm. Numerous extra maze cues surrounding the apparatus were also provided.
The AI rats were initially subjected to a pre-training test (Chappell et al. Neuropharmacology 37: 481-487, 1998). The pre-training test consisted of a habituation phase (4 days), a training phase on the standard win-shift task (18 days) and another training phase (14 days) in which a brief delay was imposed between presentation of a subset of arms designated by the experimenter (e.g., 5 arms available and 3 arms blocked) and completion of the eight-arm win-shift task (i.e., with all eight arms available).
In the habituation phase, rats were familiarized to the maze for an 8-minute session on four consecutive days. In each of these sessions, food rewards were scattered on the RAM, initially on the center platform and arms and then progressively confined to the arms. After this habituation phase, a standard training protocol was used, in which a food pellet was located at the end of each arm. Rats received one trial each day for 18 days. Each daily trial terminated when all eight food pellets had been obtained or when either 16 choices were made or 15 minutes had elapsed. After completion of this training phase, a second training phase was carried out in which the memory demand was increased by imposing a brief delay during the trial. At the beginning of each trial, three arms of the eight-arm maze were blocked. Rats were allowed to obtain food on the five arms to which access was permitted during this initial “information phase” of the trial. Rats were then removed from the maze for 60 seconds, during which time the barriers on the maze were removed, thus allowing access to all eight arms. […]

The target in data set [2] is T1, GABAA α5 receptor (Rattus norvegicus, UniProt P18508+P19969).
T1 construct: from tissue; host or cells: rat brain in vivo; hippocampus versus cerebellum
T1 sequence (P19969 32-464 limits assumed): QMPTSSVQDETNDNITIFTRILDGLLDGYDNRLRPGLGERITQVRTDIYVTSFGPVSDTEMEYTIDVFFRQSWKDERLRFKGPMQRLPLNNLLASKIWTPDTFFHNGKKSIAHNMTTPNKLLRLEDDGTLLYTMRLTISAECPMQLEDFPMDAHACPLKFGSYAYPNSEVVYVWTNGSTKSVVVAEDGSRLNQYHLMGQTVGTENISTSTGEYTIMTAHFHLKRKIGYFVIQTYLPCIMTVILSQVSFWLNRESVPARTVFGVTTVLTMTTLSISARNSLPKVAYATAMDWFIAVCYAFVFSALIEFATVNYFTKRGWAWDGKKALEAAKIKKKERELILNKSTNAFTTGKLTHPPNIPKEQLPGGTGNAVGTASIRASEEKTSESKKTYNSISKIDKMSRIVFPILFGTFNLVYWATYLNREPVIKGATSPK
T1 sequence (P18508 39-466): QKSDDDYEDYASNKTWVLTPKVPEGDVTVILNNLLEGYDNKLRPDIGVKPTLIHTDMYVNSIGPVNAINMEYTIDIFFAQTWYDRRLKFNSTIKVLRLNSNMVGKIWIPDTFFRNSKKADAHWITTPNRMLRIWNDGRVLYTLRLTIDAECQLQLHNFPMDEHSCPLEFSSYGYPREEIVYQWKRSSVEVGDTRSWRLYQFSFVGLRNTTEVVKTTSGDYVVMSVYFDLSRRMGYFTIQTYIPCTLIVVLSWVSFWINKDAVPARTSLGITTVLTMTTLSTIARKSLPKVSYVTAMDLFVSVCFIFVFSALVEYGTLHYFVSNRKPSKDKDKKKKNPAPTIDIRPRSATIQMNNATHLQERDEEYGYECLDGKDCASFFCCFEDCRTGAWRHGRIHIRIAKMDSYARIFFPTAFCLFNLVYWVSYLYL
The data set is described as follows: GABAA α5 receptor occupancy with Ro 15-4513 tracer (hippocampus vs cerebellum). In kind it is in vivo. Particulars: i.v. The text has this: Food and water were available ad libitum.

In data set [3] the target is T2, α5β2γ2 subtype GABAAR (Homo sapiens, UniProt P18507+P31644).
T2 construct: expressed in transfected cells
T2 sequence (P31644 32-462): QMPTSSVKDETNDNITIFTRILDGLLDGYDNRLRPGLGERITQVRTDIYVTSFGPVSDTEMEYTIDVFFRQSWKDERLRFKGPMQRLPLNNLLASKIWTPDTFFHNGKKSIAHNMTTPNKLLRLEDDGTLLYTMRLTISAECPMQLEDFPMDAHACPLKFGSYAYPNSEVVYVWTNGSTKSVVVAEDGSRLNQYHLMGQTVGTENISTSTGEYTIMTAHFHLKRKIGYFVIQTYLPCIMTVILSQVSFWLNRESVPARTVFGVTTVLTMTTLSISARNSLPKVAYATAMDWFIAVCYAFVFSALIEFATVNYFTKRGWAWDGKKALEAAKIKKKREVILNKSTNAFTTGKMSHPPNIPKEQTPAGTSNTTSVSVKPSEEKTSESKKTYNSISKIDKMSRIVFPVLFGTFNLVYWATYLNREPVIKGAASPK
T2 sequence (P47870 25-512 partner limits assumed): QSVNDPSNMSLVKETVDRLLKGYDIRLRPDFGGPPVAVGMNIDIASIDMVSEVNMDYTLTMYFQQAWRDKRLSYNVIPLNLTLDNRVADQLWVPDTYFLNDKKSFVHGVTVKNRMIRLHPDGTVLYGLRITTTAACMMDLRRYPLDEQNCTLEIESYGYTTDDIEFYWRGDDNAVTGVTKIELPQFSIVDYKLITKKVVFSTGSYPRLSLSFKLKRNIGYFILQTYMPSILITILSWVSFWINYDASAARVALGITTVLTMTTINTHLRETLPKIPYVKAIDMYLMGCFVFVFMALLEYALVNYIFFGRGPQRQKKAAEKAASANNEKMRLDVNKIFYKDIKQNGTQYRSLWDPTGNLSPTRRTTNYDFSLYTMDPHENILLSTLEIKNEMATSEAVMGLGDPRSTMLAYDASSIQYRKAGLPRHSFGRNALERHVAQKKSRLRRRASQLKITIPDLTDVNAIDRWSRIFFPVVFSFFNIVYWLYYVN
T2 sequence (P18507 40-467 limits assumed): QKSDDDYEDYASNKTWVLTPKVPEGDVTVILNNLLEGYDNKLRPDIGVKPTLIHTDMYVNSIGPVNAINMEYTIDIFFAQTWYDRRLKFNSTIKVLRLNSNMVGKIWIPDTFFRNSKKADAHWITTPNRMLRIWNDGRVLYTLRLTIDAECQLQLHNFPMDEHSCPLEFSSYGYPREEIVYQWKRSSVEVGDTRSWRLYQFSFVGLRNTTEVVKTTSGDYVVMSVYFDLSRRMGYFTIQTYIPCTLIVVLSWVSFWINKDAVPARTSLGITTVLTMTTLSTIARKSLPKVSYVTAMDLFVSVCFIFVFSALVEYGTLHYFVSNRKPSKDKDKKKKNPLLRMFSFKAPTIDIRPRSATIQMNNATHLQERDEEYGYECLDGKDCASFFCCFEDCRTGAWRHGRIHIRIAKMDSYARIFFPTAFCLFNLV
Description: Positive allosteric modulator activity: potentiation of EC20 GABA current in oocytes. It is filed as cell-based. Particulars: read-out: GABA α5 Functional Data (potentiation), @ 100 nM, reported as ranges. In outline: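 Xenopus oocytes injected with 1 ng α5:β2:γ2 cDNA (1:1:10 by weight) and recorded on day 2 by two-electrode voltage clamp under MBS superfusion. Potentiation (%) = Itest/IGABA at EC20 GABA; each oocyte used for one concentration only.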

SMILES strings stand for the structures. “Also recorded” adds a separate entry of the source. Bounds are passed on as bounds.

For `CCOC(=O)c1ncn2c1Cn1c(C)nnc1-c1cc(OC)ccc1-2`, in data set [1] (3 mg/kg, t(7)=4.13, p=0.004, or t(7)=3.08, p=0.018), the “memory performance relative to vehicle control” value is given as “significantly improved memory performance”. The “memory performance relative to vehicle control” value in data set [1] (10 mg/kg, p 0.026) was “significantly improved memory performance”. Also, in data set [2] (0.01-10 mg/kg), the “effect on Ro 15-4513 binding in hippocampus” value is listed as “reduced; also recorded: blocked” and the “effect on Ro 15-4513 levels (binding) in cerebellum” value is listed as “without affecting; also recorded: did not affect”. The “GABAA α5 receptor occupancy” value in data set [2] (10 mg/kg) was over 90%. As to `FC(F)(F)CC#Cc1ncn2c1Cc1cnnn1-c1cc(Cl)ccc1-2` [Compound 398], the activation at 0.1 µM in data set [3] was in the range of 20 to 50%. Take `FC(F)(F)c1ccc(C#Cc2ncn3c2Cc2cnnn2-c2cc(Cl)ccc2-3)cc1` [Compound 400]: in data set [3], the activation at 0.1 µM is 20 to 50%. `Clc1ccc2c(c1)-n1nncc1Cc1c(C#Cc3ccccn3)ncn1-2` [Compound 401]: the activation at 0.1 µM in data set [3] lay within 5 to 20%. On the same count and under the same terms, with `Clc1ccc2c(c1)-n1nncc1Cc1c(C#Cc3cccnc3)ncn1-2` [Compound 402] the figure was 20 to 50%; with `COc1ccc2c(c1)-n1nncc1Cc1c(C#Cc3ccccc3)ncn1-2` [Compound 404], 5 to 20%; with `COc1ccc2c(c1)-n1nncc1Cc1c(C#Cc3ccccc3C)ncn1-2` [Compound 405], 5 to 20%. Same read-out and setting: the same measure for `COc1ccc2c(c1)-n1nncc1Cc1c(C#Cc3ccc(C(F)(F)F)cc3)ncn1-2` [Compound 406]: 20 to 50%. Turning to `COc1ccc2c(c1)-n1nncc1Cc1c(C#Cc3cccnc3)ncn1-2` [Compound 407], in data set [3], the activation at 0.1 µM was 5 to 20%. Still for that read-out and setting: with `COc1ccc2c(c1)-n1nncc1Cc1c(C#Cc3ccccn3)ncn1-2` [Compound 408] the figure was 5 to 20%; with `COc1cccc(C#Cc2ncn3c2Cc2cnnn2-c2cc(OC)ccc2-3)c1` [Compound 409], 5 to 20%; with `COc1ccc2c(c1)-n1nncc1Cc1c(C#CCc3ccccc3)ncn1-2` [Compound 413], 5 to 20%.

As to `COc1ccc(C#Cc2ncn3c2Cc2cnnn2-c2cc(OC)ccc2-3)cc1` [Compound 414], the activation at 0.1 µM in data set [3] fell in the range of 20 to 50%. The same measure, in the same setting: the same measure for `CC(C)C#Cc1ncn2c1Cc1cnnn1-c1cc(Cl)ccc1-2` [Compound 415]: 20 to 50%; for `COc1ccc2c(c1)-n1nncc1Cc1c(C#CCc3cccc(Cl)c3)ncn1-2` [Compound 417]: 5 to 20%. On the same count and under the same terms, with `COc1ccc2c(c1)-n1nncc1Cc1c(C#CCc3cccc(OC(F)(F)F)c3)ncn1-2` [Compound 418] the figure was 20 to 50%; with `COc1ccc2c(c1)-n1nncc1Cc1c(C#CCc3cccc(F)c3)ncn1-2` [Compound 419], 20 to 50%; with `COc1ccc2c(c1)-n1nncc1Cc1c(C#CCc3ccccc3OC(F)(F)F)ncn1-2` [Compound 420], 5 to 20%.

Consider `COCc1nnc2n1Cc1c(C#CCc3cccc(F)c3)ncn1-c1ccc(Cl)cc1-2` [Compound 421], for which the activation at 0.1 µM in data set [3] lay within 20 to 50%. As for `COCc1nnc2n1Cc1c(C#CCc3cccc(Cl)c3)ncn1-c1ccc(Cl)cc1-2` [Compound 422], in data set [3], the activation at 0.1 µM lay within 20 to 50%. As to `COCc1nnc2n1Cc1c(C#CCc3cccc(OC(F)(F)F)c3)ncn1-c1ccc(Cl)cc1-2` [Compound 423], the activation at 0.1 µM in data set [3] lay in the range of 5 to 20%.

As for `CC(C)C#Cc1ccc2c(c1)-n1nncc1Cc1c(Br)ncn1-2` [Compound 454], the activation at 0.1 µM in data set [3] was in the range of 5 to 20%. For `CCOC(=O)c1ncn2c1CN(C)C(=O)c1cc(N=[N+]=[N-])ccc1-2` [Ro 15-4513], the “levels of Ro 15-4513 in hippocampus compared with cerebellum” value in data set [2] (tracer 1 μg/kg, after vehicle administration) is over 5 fold.

Source of the values: patent US12528819B2 (priority 2016, dated 2026).
